Like-named read-outs stand apart in the source and are kept apart here.
Key:
[1] = target: EGFR L858R/T790M/C797S (Homo sapiens, UniProt P00533, C797S/L858R/T790M); assay: Biochemical EGFR kinase assay (Lance Ultra TR-FRET), triple mutant L858R/T790M/C797S
How it was run: (§1)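 In this biochemical assay, phosphorylation after a one-hour room-temperature reaction was detected with europium-labelled anti-phosphopeptide antibody at 2 nM final concentration.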

[2] = target: EGFR del19/T790M/C797S (Homo sapiens, UniProt P00533, C797S/DEL746-750/T790M); assay: Biochemical EGFR kinase assay (Lance Ultra TR-FRET), triple mutant del19/T790M/C797S
Chain of EGFR del19/T790M/C797S (P00533 with tags, fused parts or gaps DEL746-750/T790M/C797S): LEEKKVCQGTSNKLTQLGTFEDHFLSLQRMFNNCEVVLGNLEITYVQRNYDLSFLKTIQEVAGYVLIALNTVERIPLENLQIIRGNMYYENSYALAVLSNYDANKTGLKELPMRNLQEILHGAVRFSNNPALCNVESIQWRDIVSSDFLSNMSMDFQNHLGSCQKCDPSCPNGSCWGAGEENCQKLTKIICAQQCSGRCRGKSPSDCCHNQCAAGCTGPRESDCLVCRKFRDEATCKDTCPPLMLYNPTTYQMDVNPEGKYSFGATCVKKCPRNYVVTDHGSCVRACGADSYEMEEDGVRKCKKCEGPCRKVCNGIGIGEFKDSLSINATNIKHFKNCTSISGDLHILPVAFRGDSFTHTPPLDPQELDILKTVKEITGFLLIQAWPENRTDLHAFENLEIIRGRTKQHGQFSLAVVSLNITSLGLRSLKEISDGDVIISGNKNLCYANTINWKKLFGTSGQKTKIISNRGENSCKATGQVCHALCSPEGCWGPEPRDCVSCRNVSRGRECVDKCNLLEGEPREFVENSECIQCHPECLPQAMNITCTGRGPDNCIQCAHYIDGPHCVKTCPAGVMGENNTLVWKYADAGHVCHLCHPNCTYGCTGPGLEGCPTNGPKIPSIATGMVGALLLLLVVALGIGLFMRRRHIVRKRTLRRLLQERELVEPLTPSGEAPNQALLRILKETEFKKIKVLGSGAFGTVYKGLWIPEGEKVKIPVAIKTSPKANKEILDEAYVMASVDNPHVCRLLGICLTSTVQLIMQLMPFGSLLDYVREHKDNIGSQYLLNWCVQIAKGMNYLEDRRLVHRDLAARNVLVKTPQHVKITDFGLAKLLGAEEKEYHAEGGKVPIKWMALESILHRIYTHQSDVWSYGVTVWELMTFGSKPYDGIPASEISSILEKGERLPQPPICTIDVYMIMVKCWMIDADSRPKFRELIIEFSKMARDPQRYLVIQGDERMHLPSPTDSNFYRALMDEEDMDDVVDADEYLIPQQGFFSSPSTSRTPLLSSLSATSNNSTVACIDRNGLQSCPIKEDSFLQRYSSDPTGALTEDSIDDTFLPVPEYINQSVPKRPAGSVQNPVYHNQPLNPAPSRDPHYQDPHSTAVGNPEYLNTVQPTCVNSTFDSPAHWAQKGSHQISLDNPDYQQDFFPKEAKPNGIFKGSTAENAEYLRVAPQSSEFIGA
How it was run: as §1

[3] = target: EGFR del19/C797S (Homo sapiens, UniProt P00533, C797S/DEL746-750); assay: Biochemical EGFR kinase assay (Lance Ultra TR-FRET), double mutant del19/C797S
How it was run: as §1

[4] = target: EGFR wildtype (Homo sapiens, UniProt P00533); assay: Biochemical EGFR kinase assay (Lance Ultra TR-FRET), wildtype
Chain of EGFR wildtype (P00533 25-1210): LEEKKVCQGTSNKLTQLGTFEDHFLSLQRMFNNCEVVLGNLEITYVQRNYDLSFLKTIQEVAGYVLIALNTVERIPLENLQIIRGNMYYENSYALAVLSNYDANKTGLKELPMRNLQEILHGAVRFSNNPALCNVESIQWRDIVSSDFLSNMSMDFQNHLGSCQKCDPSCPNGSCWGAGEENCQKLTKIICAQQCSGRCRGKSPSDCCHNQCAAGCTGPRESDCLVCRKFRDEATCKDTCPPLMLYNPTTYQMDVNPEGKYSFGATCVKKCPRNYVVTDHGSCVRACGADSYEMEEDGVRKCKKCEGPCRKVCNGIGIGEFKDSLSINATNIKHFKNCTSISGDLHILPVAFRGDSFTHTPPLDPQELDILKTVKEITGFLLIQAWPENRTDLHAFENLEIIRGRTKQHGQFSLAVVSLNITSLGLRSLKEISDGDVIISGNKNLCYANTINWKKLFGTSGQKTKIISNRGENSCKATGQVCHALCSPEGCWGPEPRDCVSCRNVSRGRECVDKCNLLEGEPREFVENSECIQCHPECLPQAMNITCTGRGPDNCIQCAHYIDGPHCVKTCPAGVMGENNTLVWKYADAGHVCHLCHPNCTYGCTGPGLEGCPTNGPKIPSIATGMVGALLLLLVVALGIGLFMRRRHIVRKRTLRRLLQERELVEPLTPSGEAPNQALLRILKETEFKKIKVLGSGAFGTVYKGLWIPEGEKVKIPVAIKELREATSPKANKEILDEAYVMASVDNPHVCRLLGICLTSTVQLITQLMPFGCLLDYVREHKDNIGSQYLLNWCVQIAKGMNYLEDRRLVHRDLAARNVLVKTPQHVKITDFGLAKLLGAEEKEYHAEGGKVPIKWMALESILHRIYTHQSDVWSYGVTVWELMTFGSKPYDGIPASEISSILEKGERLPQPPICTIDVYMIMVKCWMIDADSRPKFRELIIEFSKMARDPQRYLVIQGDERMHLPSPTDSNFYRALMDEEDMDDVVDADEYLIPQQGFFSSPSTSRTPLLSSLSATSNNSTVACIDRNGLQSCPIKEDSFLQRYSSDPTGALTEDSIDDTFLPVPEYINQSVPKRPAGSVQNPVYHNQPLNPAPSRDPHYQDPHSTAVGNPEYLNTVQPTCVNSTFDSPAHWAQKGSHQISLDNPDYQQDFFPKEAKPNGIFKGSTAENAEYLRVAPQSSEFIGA
How it was run: as §1

[5] = target: EGFR L858R/C797S (Homo sapiens, UniProt P00533, C797S/L858R); assay: Biochemical EGFR kinase assay (Lance Ultra TR-FRET), double mutant L858R/C797S
Chain of EGFR L858R/C797S (P00533 25-1210 C797S/L858R): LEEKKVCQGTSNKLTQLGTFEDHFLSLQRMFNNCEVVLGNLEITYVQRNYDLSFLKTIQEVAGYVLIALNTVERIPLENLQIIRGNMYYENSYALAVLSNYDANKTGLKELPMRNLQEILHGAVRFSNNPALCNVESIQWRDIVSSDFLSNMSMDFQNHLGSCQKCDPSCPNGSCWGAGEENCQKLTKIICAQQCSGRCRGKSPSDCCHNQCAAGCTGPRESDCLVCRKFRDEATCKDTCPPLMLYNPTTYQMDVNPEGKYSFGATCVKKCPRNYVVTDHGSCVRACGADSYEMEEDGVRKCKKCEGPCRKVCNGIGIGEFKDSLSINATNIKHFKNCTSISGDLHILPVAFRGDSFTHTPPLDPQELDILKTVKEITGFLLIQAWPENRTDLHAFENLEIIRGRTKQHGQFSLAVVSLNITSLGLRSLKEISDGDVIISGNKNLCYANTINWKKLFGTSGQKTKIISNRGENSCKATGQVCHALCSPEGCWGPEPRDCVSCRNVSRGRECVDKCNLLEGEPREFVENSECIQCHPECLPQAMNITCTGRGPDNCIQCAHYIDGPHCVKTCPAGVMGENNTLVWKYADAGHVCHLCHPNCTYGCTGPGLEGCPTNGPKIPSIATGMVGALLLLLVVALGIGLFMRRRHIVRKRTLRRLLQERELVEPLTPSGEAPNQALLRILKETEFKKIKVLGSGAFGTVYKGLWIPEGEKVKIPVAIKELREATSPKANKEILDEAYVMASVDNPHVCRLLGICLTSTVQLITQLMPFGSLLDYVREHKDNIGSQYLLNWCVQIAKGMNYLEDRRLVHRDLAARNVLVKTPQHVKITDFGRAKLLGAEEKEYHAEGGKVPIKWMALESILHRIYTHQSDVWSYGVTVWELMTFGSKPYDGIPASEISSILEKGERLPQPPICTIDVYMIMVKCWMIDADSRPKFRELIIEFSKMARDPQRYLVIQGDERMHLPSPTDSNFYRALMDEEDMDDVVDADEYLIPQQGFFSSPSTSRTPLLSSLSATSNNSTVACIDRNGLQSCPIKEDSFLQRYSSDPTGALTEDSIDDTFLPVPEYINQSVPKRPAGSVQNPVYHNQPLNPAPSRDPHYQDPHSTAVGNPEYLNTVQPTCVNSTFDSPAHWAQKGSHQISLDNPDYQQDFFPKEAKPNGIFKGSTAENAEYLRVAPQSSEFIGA
How it was run: as §1

[6] = ATP at Km, read-out: IC50 L858R/T790M/C797S, Km ATP
[7] = IC50 L858R/T790M/C797S, 100 μM ATP
[8] = ATP at Km, read-out: IC50 del19/T790M/C797S, Km ATP
[9] = IC50 del19/T790M/C797S, 100 μM ATP
[10] = ATP at Km, read-out: IC50 del19/C797S, Km ATP
[11] = ATP at Km, read-out: IC50 WT, Km ATP
[12] = ATP at Km, read-out: IC50 L858R/C797S, Km ATP

Chain of EGFR L858R/T790M/C797S (P00533 25-1210 T790M/C797S/L858R): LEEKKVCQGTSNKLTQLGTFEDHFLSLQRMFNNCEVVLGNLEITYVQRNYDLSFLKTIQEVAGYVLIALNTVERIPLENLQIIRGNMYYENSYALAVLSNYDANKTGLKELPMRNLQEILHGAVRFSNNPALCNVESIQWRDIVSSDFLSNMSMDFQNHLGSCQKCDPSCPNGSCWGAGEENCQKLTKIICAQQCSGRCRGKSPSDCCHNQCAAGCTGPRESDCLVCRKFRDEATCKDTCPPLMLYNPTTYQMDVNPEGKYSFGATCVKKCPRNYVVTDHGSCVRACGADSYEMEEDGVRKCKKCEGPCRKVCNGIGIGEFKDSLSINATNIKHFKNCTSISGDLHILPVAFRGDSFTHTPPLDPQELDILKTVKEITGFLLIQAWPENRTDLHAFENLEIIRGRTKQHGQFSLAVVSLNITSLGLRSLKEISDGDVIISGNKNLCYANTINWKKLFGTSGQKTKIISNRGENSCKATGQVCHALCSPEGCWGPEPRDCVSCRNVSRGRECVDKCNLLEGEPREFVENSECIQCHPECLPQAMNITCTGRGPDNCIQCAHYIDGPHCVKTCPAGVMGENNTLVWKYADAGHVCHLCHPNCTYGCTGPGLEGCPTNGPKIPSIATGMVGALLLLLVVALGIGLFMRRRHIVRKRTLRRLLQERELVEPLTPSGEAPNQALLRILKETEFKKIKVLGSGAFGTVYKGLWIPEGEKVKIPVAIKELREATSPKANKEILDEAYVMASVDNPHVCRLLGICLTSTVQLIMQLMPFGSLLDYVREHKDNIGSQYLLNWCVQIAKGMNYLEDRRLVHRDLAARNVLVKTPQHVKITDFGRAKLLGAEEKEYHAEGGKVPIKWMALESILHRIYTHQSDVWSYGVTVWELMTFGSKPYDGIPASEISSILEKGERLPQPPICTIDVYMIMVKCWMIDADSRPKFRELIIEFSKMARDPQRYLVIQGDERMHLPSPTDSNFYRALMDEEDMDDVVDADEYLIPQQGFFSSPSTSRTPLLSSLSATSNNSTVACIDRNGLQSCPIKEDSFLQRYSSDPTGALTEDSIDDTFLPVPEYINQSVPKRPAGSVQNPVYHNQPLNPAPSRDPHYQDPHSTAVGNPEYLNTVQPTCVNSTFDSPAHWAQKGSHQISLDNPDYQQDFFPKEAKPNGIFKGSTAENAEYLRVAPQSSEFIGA

| IC50 [1, 6] [nM] | IC50 [1, 7] [nM] | IC50 [2, 8] [nM] | IC50 [2, 9] [nM] | IC50 [3, 10] [nM] | IC50 ([3]; IC50 del19/C797S, 100 μM ATP) [nM] | IC50 [4, 11] [nM] | IC50 ([4]; IC50 WT, 100 μM ATP) [nM] | IC50 [5, 12] [nM] | IC50 ([5]; IC50 L858R/C797S, 100 μM ATP) [nM] | SMILES |
| --- | --- | --- | --- | --- | --- | --- | --- | --- | --- | --- |
| 0.2 | 0.3 | 0.3 | 0.4 | 0.3 | 0.5 | 0.6 | 426 | 0.1 | 1.8 | CN(C)CCOc1ccc(-c2cnc(Nc3ccnc(-c4cnn(S(=O)(=O)C5CC5)c4)n3)cc2N[C@H]2CC[C@@H](C(C)(C)O)CC2)nc1 [Example 210, 2-((1s,4s)-4-((6′-((2-(1-(Cyclopropylsulfonyl)-1H-pyrazol-4-yl)pyrimidin-4-yl)amino)-5-(2-(dimethylamino)ethoxy)-[2,3′-bipyridin]-4′-yl)amino)cyclohexyl)propan-2-ol] |
| 0.8 | 1.3 | 1.2 | – | 3.8 | 7.7 | 0.6 | > 10000 | 1.4 | 85.4 | CC(C)(O)[C@H]1CC[C@@H](Nc2cc(Nc3ccnc(-c4cnn(S(=O)(=O)C5CC5)c4)n3)ncc2-c2cc(OCCN3CCOCC3)ccn2)CC1 [Example 213, 2-((1s,4s)-4-((6′-((2-(1-(Cyclopropylsulfonyl)-1H-pyrazol-4-yl)pyrimidin-4-yl)amino)-4-(2-morpholinoethoxy)-[2,3′-bipyridin]-4′-yl)amino)cyclohexyl)propan-2-ol] |
| 3.5 | 4.5 | 3 | 5.6 | 1.8 | 8 | 4.5 | 711 | 2.2 | 6.9 | O=S(=O)(C1CC1)n1cc(-c2nccc(Nc3cc(N[C@H]4CC[C@@H](CO)CC4)c(-c4cc(NC5CC(F)(F)C5)ccn4)cn3)n2)cn1 [Example 214, ((1s,4s)-4-((6′-((2-(1-(Cyclopropylsulfonyl)-1H-pyrazol-4-yl)pyrimidin-4-yl)amino)-4-((3,3-difluorocyclobutyl)amino)-[2,3′-bipyridin]-4′-yl)amino)cyclohexyl)methanol] |
| 0.8 | 0.7 | 1.2 | 1.2 | 0.8 | 1.3 | 0.8 | 136 | 0.3 | 1.4 | CN(C)C[C@H]1CC[C@@H](Nc2cc(Nc3ccnc(-c4cnn(S(=O)(=O)C5CC5)c4)n3)ncc2-c2cc(NC3CC(F)(F)C3)ccn2)CC1 [Example 216, N^6′-(2-(1-(Cyclopropylsulfonyl)-1H-pyrazol-4-yl)pyrimidin-4-yl)-N^4-(3,3-difluorocyclobutyl)-N^4′-((1s,4s)-4-((dimethylamino)methyl)cyclohexyl)-[2,3′-bipyridine]-4,4′,6′-triamine] |
| 0.3 | 0.3 | 0.8 | 0.7 | 0.2 | 0.3 | 0.8 | 118 | 0.2 | 0.4 | CC(C)(O)[C@H]1CC[C@@H](Nc2cc(Nc3ccnc(-c4cnn(S(=O)(=O)C5CC5)c4)n3)ncc2-c2ccc(OCCN3CCC3)cn2)CC1 [Example 217, 2-((1s,4s)-4-((5-(2-(Azetidin-1-yl)ethoxy)-6′-((2-(1-(cyclopropylsulfonyl)-1H-pyrazol-4-yl)pyrimidin-4-yl)amino)-[2,3′-bipyridin]-4′-yl)amino)cyclohexyl)propan-2-ol] |
| – | 2.9 | 3.2 | 1.8 | 4.9 | 8.7 | 12.1 | 2670 | 2.9 | 27.4 | O=S(=O)(C1CC1)n1cc(-c2nccc(Nc3cc(N[C@H]4CC[C@@H](CO)CC4)c(-c4ccc(CC(F)(F)F)cn4)cn3)n2)cn1 [Example 219, ((1s,4s)-4-((6′-((2-(1-(Cyclopropylsulfonyl)-1H-pyrazol-4-yl)pyrimidin-4-yl)amino)-5-(2,2,2-trifluoroethyl)-[2,3′-bipyridin]-4′-yl)amino)cyclohexyl)methanol] |

The remaining lines, values behind:

| SMILES | IC50 [1, 6] [nM] | IC50 [1, 7] [nM] | IC50 [2, 8] [nM] | IC50 [2, 9] [nM] | IC50 [3, 10] [nM] | IC50 ([3]; IC50 del19/C797S, 100 μM ATP) [nM] | IC50 [4, 11] [nM] | IC50 ([4]; IC50 WT, 100 μM ATP) [nM] | IC50 [5, 12] [nM] | IC50 ([5]; IC50 L858R/C797S, 100 μM ATP) [nM] |
| --- | --- | --- | --- | --- | --- | --- | --- | --- | --- | --- |
| O=S(=O)(C1CC1)n1cc(-c2nccc(Nc3cc(N[C@H]4CC[C@@H](CO)CC4)c(-c4ccc(OCCO)cn4)cn3)n2)cn1 [Example 206, 2-((6′-((2-(1-(Cyclopropylsulfonyl)-1H-pyrazol-4-yl)pyrimidin-4-yl)amino)-4′-(((1s,4s)-4-(hydroxymethyl)cyclohexyl)amino)-[2,3′-bipyridin]-5-yl)oxy)ethan-1-ol] | 0.3 | 0.4 | 0.6 | 0.9 | 0.7 | 0.6 | 1.2 | 348 | 0.4 | 2.4 |
| CN(C)CCOc1ccc(-c2cnc(Nc3ccnc(-c4cnn(S(=O)(=O)C5CC5)c4)n3)cc2N[C@H]2CC[C@@](C)(O)CC2)nc1 [Example 208, (1s,4s)-4-((6′-((2-(1-(Cyclopropylsulfonyl)-1H-pyrazol-4-yl)pyrimidin-4-yl)amino)-5-(2-(dimethylamino)ethoxy)-[2,3′-bipyridin]-4′-yl)amino)-1-methylcyclohexan-1-ol] | 0.1 | 0.2 | 0.1 | 0.2 | 0.2 | 0.3 | 0.3 | 243 | 0.1 | 0.6 |
| CN(C)CCOc1ccc(-c2cnc(Nc3ccnc(-c4cnn(S(=O)(=O)C5CC5)c4)n3)cc2N[C@H]2CC[C@@H](CO)CC2)nc1 [Example 209, ((1s,4s)-4-((6′-((2-(1-(Cyclopropylsulfonyl)-1H-pyrazol-4-yl)pyrimidin-4-yl)amino)-5-(2-(dimethylamino)ethoxy)-[2,3′-bipyridin]-4′-yl)amino)cyclohexyl)methanol] | 0.1 | 0.2 | 0.1 | 0.2 | 0.1 | 0.3 | 0.2 | 99.2 | 0.1 | 0.6 |
| C[C@]1(O)CC[C@@H](Nc2cc(Nc3ccnc(-c4cnn(S(=O)(=O)C5CC5)c4)n3)ncc2-c2cc(OCCN3CCOCC3)ccn2)CC1 [Example 211, (1s,4s)-4-((6′-((2-(1-(Cyclopropylsulfonyl)-1H-pyrazol-4-yl)pyrimidin-4-yl)amino)-4-(2-morpholinoethoxy)-[2,3′-bipyridin]-4′-yl)amino)-1-methylcyclohexan-1-ol] | 0.1 | 0.4 | 0.3 | 0.5 | – | 2.4 | 6.9 | 9480 | 0.5 | 30.1 |
| O=S(=O)(C1CC1)n1cc(-c2nccc(Nc3cc(N[C@H]4CC[C@@H](CO)CC4)c(-c4cc(OCCN5CCOCC5)ccn4)cn3)n2)cn1 [Example 212, ((1s,4s)-4-((6′-((2-(1-(Cyclopropylsulfonyl)-1H-pyrazol-4-yl)pyrimidin-4-yl)amino)-4-(2-morpholinoethoxy)-[2,3′-bipyridin]-4′-yl)amino)cyclohexyl)methanol] | 0.4 | 0.6 | 0.5 | 1 | 1.2 | 2.7 | 3.4 | 7860 | 0.5 | 18.7 |
| CC(C)(O)[C@H]1CC[C@@H](Nc2cc(Nc3ccnc(-c4cnn(S(=O)(=O)C5CC5)c4)n3)ncc2-c2cc(NC3CC(F)(F)C3)ccn2)CC1 [Example 215, 2-((1s,4s)-4-((6′-((2-(1-(Cyclopropylsulfonyl)-1H-pyrazol-4-yl)pyrimidin-4-yl)amino)-4-((3,3-difluorocyclobutyl)amino)-[2,3′-bipyridin]-4′-yl)amino)cyclohexyl)propan-2-ol] | 7.6 | 17.5 | 9.1 | 25.4 | 7.8 | 36.4 | 21.4 | 6110 | 13.6 | 46.4 |
| C[C@]1(O)CC[C@@H](Nc2cc(Nc3ccnc(-c4cnn(S(=O)(=O)C5CC5)c4)n3)ncc2-c2ccc(CC(F)(F)F)cn2)CC1 [Example 218, (1s,4s)-4-((6′-((2-(1-(Cyclopropylsulfonyl)-1H-pyrazol-4-yl)pyrimidin-4-yl)amino)-5-(2,2,2-trifluoroethyl)-[2,3′-bipyridin]-4′-yl)amino)-1-methylcyclohexan-1-ol] | 0.7 | 1.8 | 2.1 | 0.6 | – | 7.1 | 10.3 | > 10000 | 3.6 | 59.4 |
| CC(C)(O)[C@H]1CC[C@@H](Nc2cc(Nc3ccnc(-c4cnn(S(=O)(=O)C5CC5)c4)n3)ncc2-c2ccc(CC(F)(F)F)cn2)CC1 [Example 220, 2-((1s,4s)-4-((6′-((2-(1-(Cyclopropylsulfonyl)-1H-pyrazol-4-yl)pyrimidin-4-yl)amino)-5-(2,2,2-trifluoroethyl)-[2,3′-bipyridin]-4′-yl)amino)cyclohexyl)propan-2-ol] | 5.4 | 9.3 | 8.5 | 2.3 | 27.8 | 30.5 | 115 | > 10000 | 25.9 | 289 |

— US12258328B2, “6-membered heteroaryl-containing aminopyridine compounds as EGFR inhibitors” (YUHAN CORPORATION, priority 2021, dated 2025)
